# Values quoted from earlier work, collected in patent US20100055040A1, “Optical Imaging Contrast Agents” (priority 2005, published 2010).
# How the values were obtained:
# [1] = gastrointestinal tract
# ulcerated gastric mucosa = settings: humans; ulcerated vs unulcerated gastric mucosa
substance,measurement,setting,value
"α-D-glucopyranoside, β-D-fructofuranosyl-, octakis-(hydrogen sulfate), aluminum complex [Sucralfate]",absorption by the body,[1],only minimally absorbed
same,times more sucralfate binds to ulcerated gastric mucosa than to unulcerated mucosa,ulcerated gastric mucosa,six to seven
